Target: T1, human RXFP1 (Homo sapiens, UniProt Q9HBX9)
T1 construct: expressed in transfected cells
T1 sequence (Q9HBX9 1-757): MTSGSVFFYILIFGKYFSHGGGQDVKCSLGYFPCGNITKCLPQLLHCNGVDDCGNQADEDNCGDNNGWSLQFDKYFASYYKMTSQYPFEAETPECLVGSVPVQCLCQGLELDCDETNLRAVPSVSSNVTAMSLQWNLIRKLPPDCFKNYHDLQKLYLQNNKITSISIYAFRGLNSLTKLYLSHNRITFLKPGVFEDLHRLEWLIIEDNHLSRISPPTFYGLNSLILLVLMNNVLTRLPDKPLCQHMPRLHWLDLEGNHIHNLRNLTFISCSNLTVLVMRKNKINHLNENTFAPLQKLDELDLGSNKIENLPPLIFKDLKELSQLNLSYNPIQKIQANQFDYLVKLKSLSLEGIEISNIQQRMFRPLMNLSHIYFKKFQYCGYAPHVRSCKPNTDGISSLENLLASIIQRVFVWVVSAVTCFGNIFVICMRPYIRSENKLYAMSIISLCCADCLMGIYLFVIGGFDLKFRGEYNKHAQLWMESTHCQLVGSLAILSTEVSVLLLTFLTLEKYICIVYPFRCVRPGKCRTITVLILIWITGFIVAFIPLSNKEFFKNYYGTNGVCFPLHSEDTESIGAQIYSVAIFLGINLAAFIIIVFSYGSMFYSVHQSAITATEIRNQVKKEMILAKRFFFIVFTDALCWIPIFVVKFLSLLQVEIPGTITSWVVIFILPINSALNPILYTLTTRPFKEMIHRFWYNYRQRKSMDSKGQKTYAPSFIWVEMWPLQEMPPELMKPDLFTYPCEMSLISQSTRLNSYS
Assay: hRXFP1 HEK293 cAMP assay (HTRF)
Type: cell-based
Details: HEK293 cells stably expressing human RXFP1, 30 min at room temperature
How it was run: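 HEK293 cells stably expressing human RXFP1 (1500 cells/well) in HBSS/20 mM HEPES/0.05% BSA/0.5 mM IBMX. Compounds were tested at 0.010 nM–50 μM final (2% DMSO) for 30 min at room temperature. cAMP was measured by HTRF and values derived by 4-parameter logistic fit.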

Structure (SMILES) | EC50 [µM]
COc1ccc(CC2CCOCC2)cc1C(=O)NC1C2CCC(/C2=C/C2CCC2)[C@@H]1C(=O)Nc1ccc(F)c(C(F)(F)F)c1 (stereo partly drawn) [Example 194, (7Z)-7-(cyclobutylmethyli-dene)-N-[4-fluoro-3-(trifluoromethyl)phe-nyl]-3-{2-methoxy-5-[(oxan-4-yl)methyl]benzamido} bicyclo[2.2.1]hept-ane-2-carboxamide] | 0.076
COc1ccc(CCCC(F)(F)F)cc1C(=O)NC1C2CCC(/C2=C/C2CCC2)[C@@H]1C(=O)Nc1ccc(F)c(C(F)(F)F)c1 (stereo partly drawn) [Example 195, (7Z)-7-(cyclobutylmethylidene)-N-[4-fluoro-3-(trifluoromethyl)phe-nyl]-3-[2-methoxy-5-(4,4,4-trifluorobutyl)benza-mido]bicyclo[2.2.1] heptane-2-carboxamide] | 0.059
COc1ccc(CCCC(F)F)cc1C(=O)NC1C2CCC(/C2=C/C2CCC2)[C@@H]1C(=O)Nc1ccc(F)c(C(F)(F)F)c1 (stereo partly drawn) [Example 196, (7Z)-7-(cyclobutylmethyl-idene)-3-[5-(4,4-difluorobutyl)-2-methoxybenzamido]-N-[4-fluoro-3-(trifluoromethyl)phe-nyl]bicyclo[2.2.1] heptane-2-carboxamide] | 0.032
COc1ccc(S(=O)(=O)N2CCO[C@@H](CO)C2)cc1C(=O)NC1C2CCC(/C2=C/C(F)(F)F)[C@@H]1C(=O)Nc1ccc(F)c(C(F)(F)F)c1 (stereo partly drawn) [Example 200, (2S,3R,7Z)-N-[4-fluoro-3-(trifluoromethyl)phe-nyl]-3-(5-{[(2R)-2-(hydroxymethyl)mor-pholin-4-yl]sulfonyl}-2-methoxybenzamido)-7-(2,2,2-trifluoroethylidene)bi-cyclo[2.2.1]heptane-2-carboxamide] | 0.203
COc1ccc(S(=O)(=O)N2CCO[C@@H](CO)C2)cc1C(=O)NC1C2CCC(/C2=C/C2CC2)[C@@H]1C(=O)Nc1ccc(F)c(C(F)(F)F)c1 (stereo partly drawn) [Example 201, (2S,3R,7Z)-7-(cyclopropylmethyli-dene)-N-[4-fluoro-3-(trifluoromethyl)phe-nyl]-3-(5-{[(2R)-2-(hydroxymethyl)mor-pholin-4-yl]sulfonyl}-2-methoxybenzamido) bicyclo[2.2.1]heptane-2-carboxamide] | 0.014
COc1ccc(S(=O)(=O)N2CCS(=O)(=O)CC2)cc1C(=O)NC1C2CCC(/C2=C/C(F)(F)F)[C@@H]1C(=O)Nc1ccc(F)c(C(F)(F)F)c1 (stereo partly drawn) [Example 202, (2S,3R,7Z)-3-{5-[(1,1-dioxo-1λ^6-thiomorpholin-4-yl)sulfonyl]-2-methoxybenzamido}-N-[4-fluoro-3-(trifluoromethyl)phe-nyl]-7-(2,2,2-trifluoroethylidene)bi-cyclo[2.2.1]heptane-2-carboxamide] | 0.186

The remaining lines, values ahead:

EC50 [µM] | Structure (SMILES)
0.918 | COc1ccc(S(=O)(=O)NC[C@H](C)O)cc1C(=O)N[C@@H]1C2CCC(/C2=C/C(F)(F)F)[C@@H]1C(=O)Nc1ccc(F)c(C(F)(F)F)c1 (stereo partly drawn) [Example 197, (1R,2S,3R,4R,Z)—N-(4-fluoro-3-(trifluoromethyl)phenyl)-3-(5-(N—((S)-2-hydroxypropyl)sulfamoyl)-2-methoxybenzamido)-7-(2,2,2-trifluoroethylidene) bicyclo[2.2.1]heptane-2-carboxamide]
1.92 | COc1ccc(S(=O)(=O)NC2CCOC2)cc1C(=O)NC1C2CCC(/C2=C/C(F)(F)F)[C@@H]1C(=O)Nc1ccc(F)c(C(F)(F)F)c1 (stereo partly drawn) [Example 198, (2S,3R,7Z)-N-[4-fluoro-3-(trifluoromethyl)phe-nyl]-3-{2-methoxy-5-[(oxolan-3-yl)sulfamoyl]benza-mido}-7-(2,2,2-trifluoroethylidene)bi-cyclo[2.2.1]heptane-2-carboxamide]
0.719 | COc1ccc(S(=O)(=O)N2CCOCC2)cc1C(=O)NC1C2CCC(/C2=C/C(F)(F)F)[C@@H]1C(=O)Nc1ccc(F)c(C(F)(F)F)c1 (stereo partly drawn) [Example 199, (2S,3R,7Z)-N-[4-fluoro-3-(trifluoromethyl)phe-nyl]-3-[2-methoxy-5-(morpholine-4-sulfonyl)benzamido]-7-(2,2,2-triflurooethylidene)bi-cyclo[2.2.1]heptane-2-carboxamide]

From US20250268903A1, “RXFP1 AGONISTS” (BRISTOL-MYERS SQUIBB COMPANY, priority 2021, published 2025)
